In PubChem BioAssay (NCI):
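Where inhibition never reached the appropriate level, the endpoint shown equals the highest concentration tested. Otherwise, values were interpolated linearly from a five-concentration, 48-hour dose response in 96-well plates. GI50: concentration for 50% inhibition of growth. TGI: concentration producing complete growth inhibition.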

How the values were obtained:
Assay in all cases: NCI anticancer screen, dose series, 48 h
[1] = tested on: CCRF-CEM leukemia
[2] = tested on: HOP-62 NSCLC
[3] = tested on: LOX IMVI melanoma
[4] = tested on: MALME-3M melanoma
[5] = tested on: MOLT-4 leukemia
[6] = tested on: BT-549 breast
[7] = tested on: MDA-MB-231 breast
[8] = tested on: MDA-MB-435
[9] = tested on: NCI/ADR-RES ovarian
[10] = tested on: PC-3 prostate

Compound | TGI [1] [µM] | TGI [2] [µM] | TGI [3] [µM] | TGI [4] [µM] | TGI [5] [µM] | TGI [6] [µM] | TGI [7] [µM] | TGI [8] [µM] | TGI [9] [µM] | TGI [10] [µM] | GI50 [6] [µM] | GI50 [1] [µM] | GI50 [2] [µM] | GI50 [3] [µM] | GI50 [4] [µM] | GI50 [7] [µM] | GI50 [8] [µM] | GI50 [5] [µM] | GI50 [9] [µM] | GI50 [10] [µM]
C/C=C/COC(=O)CO[N+](=O)[O-] | > 100 | > 100 | > 100 | > 100 | > 100 | – | – | – | – | – | – | – | – | – | – | – | – | – | – | –
CCCCCCCCCCCCCC(=O)CSCCNC(=O)CCNC(=O)[C@@H](O)C(C)(C)COP(=O)(O)OP(=O)(O)OCC1OC(n2cnc3c(N)ncnc32)C(O)C1OP(=O)(O)O (stereo not given in full) | 99.2 | 32.6 | 37.2 | 34.6 | – | – | – | – | – | – | – | – | – | – | – | – | – | – | – | –
CN(/N=C/c1cccc2cccnc12)c1c([N+](=O)[O-])cc([N+](=O)[O-])cc1[N+](=O)[O-] | – | > 100 | > 100 | > 100 | > 100 | – | – | – | – | – | – | – | – | – | – | – | – | – | – | –
CCCN(CCC)c1c([N+](=O)[O-])cc(C(=O)N(CCO)CCO)cc1[N+](=O)[O-] | > 100 | – | – | > 100 | > 100 | – | – | – | – | – | – | – | – | – | – | – | – | – | – | –
Cn1c(=O)c2[nH]cnc2n(CC(N)=O)c1=O | > 100 | > 100 | – | > 100 | > 100 | – | – | – | – | – | – | – | – | – | – | – | – | – | – | –
CN(C)CCNC(=O)c1cccc2ccc(-c3ccc(-c4ccccc4)cc3)nc12 | 11.5 | 10.3 | 3.09 | 3.61 | 5.16 | – | – | – | – | – | – | – | – | – | – | – | – | – | – | –
O=C1c2ccccc2C(=O)c2c(NCC3CO3)ccc(NCC3CO3)c21 (stereo not given) | – | 6.96 | 0.0161 | 18.3 | 0.53 | 14.1 | 14.8 | 2.58 | 11.4 | 9.61 | – | – | – | – | – | – | – | – | – | –
Cc1cc(O)c(/C=N/C(=S)Nc2ccccc2)c(=O)o1 | > 100 | > 100 | > 100 | – | > 100 | > 100 | > 100 | > 100 | > 100 | > 100 | – | – | – | – | – | – | – | – | – | –
N#Cc1ccc2cc3c(cc2c1)OCO3 | > 100 | > 100 | > 100 | – | > 100 | – | – | – | – | – | – | – | – | – | – | – | – | – | – | –
Clc1ccccc1C(Nc1ncccn1)Nc1ncccn1 | – | > 100 | > 100 | – | > 100 | > 100 | > 100 | > 100 | > 100 | > 100 | – | – | – | – | – | – | – | – | – | –
CC1=C(C)C2(O)C(=C(C)C1=O)/C(=C(/O)c1ccccc1)c1nc3ccccc3n12 (stereo not given) | 38.5 | 48.7 | 34.6 | 43.9 | 72.3 | 54.8 | 30 | 35.1 | – | – | 22.6 | 12.2 | 21.9 | 16.7 | 19.1 | 15.4 | 17.3 | 24.6 | – | –
O=C(CCc1nnc2s/c(=C\c3ccccc3Cl)c(=O)n12)Nc1cc(Cl)ccc1Cl | > 100 | > 100 | > 100 | > 100 | > 100 | – | – | – | – | – | – | – | – | – | – | – | – | – | – | –
CC(=O)N(O)Cc1ccccc1 | > 100 | > 100 | > 100 | > 100 | > 100 | – | – | – | – | – | – | – | – | – | – | – | – | – | – | –
CC12CCC3c4cc(Br)c(O)c(Br)c4CCC3C1CCC2O (stereo not given) | 75.8 | – | 63.6 | 30.8 | 42.2 | 30.2 | 27.4 | 18.7 | 62.5 | > 100 | – | – | – | – | – | – | – | – | – | –
C#CC1(O)CCC2[C@@H]3CCc4cc(Oc5nc(F)nc(-c6c7ccccc7cn6C)n5)ccc4C3CC[C@@]21C (stereo not given in full) | > 67 | > 100 | > 100 | > 100 | > 100 | – | – | – | – | – | – | – | – | – | – | – | – | – | – | –
O=c1cc(-c2ccccc2)oc2cc(OC/C(=N/O)c3ccc(F)cc3)ccc12 | > 50 | > 50 | > 50 | – | > 50 | 36.9 | > 50 | > 50 | > 50 | 40.1 | 15.1 | 23.7 | > 50 | 20.8 | – | 16.3 | 13.8 | > 50 | 21 | 11.9
S=C=NCCc1ccccc1 | 4.25 | 1.35 | 0.66 | 2.51 | – | – | – | – | – | – | – | – | – | – | – | – | – | – | – | –
Cc1ccc(C)c(NC(=O)CC2SC(=Nc3ccccc3Cl)NC2=O)c1 (stereo not given) | > 100 | > 100 | – | > 100 | > 100 | – | – | – | – | – | – | – | – | – | – | – | – | – | – | –
C=C(C)C(=O)O[C@@H]1C/C(C)=C\[C@H](OC(C)=O)C[C@](C)(O)/C=C2/OC(=O)C(COC(C)=O)=C21 | – | > 100 | 0.373 | 0.979 | 2.32 | 3.91 | 2.63 | 2.8 | – | 3.63 | – | – | – | – | – | – | – | – | – | –
Cc1nc2sccn2c1C(=O)NC(=O)Nc1ccc(Cl)cc1 | > 100 | > 100 | > 100 | > 100 | > 100 | – | – | – | – | – | – | – | – | – | – | – | – | – | – | –
O=C(CC(=O)c1cccc(Cl)c1)c1cccc(Cl)c1 | > 100 | > 100 | > 100 | > 100 | > 100 | – | > 100 | > 100 | 6.35 | > 100 | – | 0.874 | 2.59 | 1.37 | 2.75 | 2.67 | 3.18 | 2.08 | 2.06 | 2.41
O=c1[nH]c(=O)n(C2CC(O)C(CO)O2)cc1C#Cc1ccc(F)cc1 (stereo not given) | > 100 | > 100 | > 100 | > 100 | > 100 | – | – | – | – | – | – | – | – | – | – | – | – | – | – | –
CCn1c2c(c3ccccc31)C(c1ccccc1)CC1C(=O)N(c3ccccc3)C(=O)C21 (stereo not given) | > 100 | > 100 | > 100 | 52.4 | > 100 | – | – | – | – | – | – | – | – | – | – | – | – | – | – | –
Cc1ccc(NC(=O)/C(=N/N(C)C)C(C2OC(=O)c3ccccc32)[N+](=O)[O-])cc1 (stereo not given) | > 100 | > 100 | > 100 | – | > 100 | > 100 | > 100 | > 100 | > 100 | > 100 | – | – | – | – | – | – | – | – | – | –
COc1ccc(Cn2cc3c(c2-c2ccccc2)CCc2cnoc2-3)cc1N | – | > 100 | > 100 | – | > 96.1 | > 100 | > 100 | – | – | > 100 | 3.01 | 0.245 | 0.433 | 0.766 | – | 1.03 | – | 0.398 | 0.0828 | 0.551
Cc1cc(=O)[nH]c(CNC(=O)c2cccc(C(=O)NCc3cc(=O)[nH]c(C)n3)c2)n1 | > 100 | > 100 | > 100 | > 100 | > 100 | – | – | – | – | – | – | – | – | – | – | – | – | – | – | –
